According to patent US11376232B2, “Vidofludimus for use in the treatment or prevention of viral diseases” (Immunic AG, priority 2020, dated 2022):
Several values for one entry are separate records, joined by “and”; a condition that tells them apart may be missing. Equal values may be shown once. Where a name gives a salt, the structure may show the parent alone. Read-outs that look alike come from different tables or passages of the source.

Legend:
SARS-CoV-2 USA_WA1/2020 = experiment: microbe, parasite or virus in culture; assay type: cell-based; conditions: Severe acute respiratory syndrome coronavirus 2, Vero 76
[1] = Cytotoxicity in Vero 76 cells (Table 4); conditions: African green monkey
Vero 76 = experiment: Cytotoxicity in Vero 76 cells (Table 4); conditions: Vero 76, 3 days post infection
[2] = system: HCV sub genomic replicon of genotype 1b; conditions: cited from earlier work
SARS-CoV-2 [3] = assay type: cell-based; conditions: CaCo-2 supernatants on Vero E6 monolayers, treatment setting
[4] = system: hyperactivated immune cells; experiment: T-cell mediated cytokine production of hyperactivated immune cells; assay type: cell-based
[5] = Cytotoxicity on HepG2 cells; conditions: human
[6] = system: SARS-CoV-2 infection (COVID-19)
SARS-CoV-2 MUC-IMB-1 [7] = experiment: microbe, parasite or virus in culture; assay type: cell-based; conditions: Severe acute respiratory syndrome coronavirus 2, Caco-2
in vitro [8] = conditions: human
Lassa fever Arena virus = conditions: Plaque reduction, virus protein expression; A549 and Vero models; cited from earlier work
SARS-CoV-2 [9] = assay type: cell-based
[10] = system: SARS-CoV-2 infection (COVID-19); experiment: Phase 2 placebo-controlled trial in hospitalized patients with moderate COVID-19; conditions: human, in vivo
[11] = Clinical tolerability of repeated daily dosing; assay type: in vivo, human; conditions: clinical trials
[12] = system: HIV-191US005 (CCR5-tropic, Subtype B); conditions: cited from earlier work
in vitro [13] = conditions: African green monkey
[14] = human, in vivo
mDHODH = mDHODH (Mus musculus, UniProt O35435); experiment: mDHODH inhibition, in vitro protein; assay type: biochemical
[15] = Cytotoxicity on fibroblasts
[16] = Cytotoxicity in uninfected Vero 76 cells (neutral red); assay type: cell-based; conditions: African green monkey, Vero 76, day 5, neutral red, read-out: CC50: 50% cytotoxic concentration of compound without virus added
in vitro [17] = conditions: African green monkey; remark: listed apart in the source
SARS-CoV-2 MUC-IMB-1 [18] = experiment: microbe, parasite or virus in culture; assay type: cell-based; conditions: Severe acute respiratory syndrome coronavirus 2, Vero 76
SARS-CoV-2 [19] = experiment: SARS-CoV-2 CPE inhibition (neutral red) in Vero 76 cells; assay type: cell-based; conditions: Severe acute respiratory syndrome coronavirus 2, Vero 76, 120 h, read-out: EC50: 50% effective antiviral concentration
SARS-CoV-2 MUC-IMB-1 [20] = experiment: microbe, parasite or virus in culture; assay type: cell-based; conditions: Severe acute respiratory syndrome coronavirus 2, Vero
[21] = in vivo; cited from earlier work
EGFR = EGFR (Homo sapiens, UniProt P00533); experiment: Off-target activity on EGFR; conditions: in contrast to leflunomide and teriflunomide
Auroroa-A kinases = biological target: T1, Auroroa-A kinases (Homo sapiens, UniProt O14965); experiment: Off-target activity on Aurora-A kinase; conditions: in contrast to leflunomide and teriflunomide
T1 sequence (O14965 1-403): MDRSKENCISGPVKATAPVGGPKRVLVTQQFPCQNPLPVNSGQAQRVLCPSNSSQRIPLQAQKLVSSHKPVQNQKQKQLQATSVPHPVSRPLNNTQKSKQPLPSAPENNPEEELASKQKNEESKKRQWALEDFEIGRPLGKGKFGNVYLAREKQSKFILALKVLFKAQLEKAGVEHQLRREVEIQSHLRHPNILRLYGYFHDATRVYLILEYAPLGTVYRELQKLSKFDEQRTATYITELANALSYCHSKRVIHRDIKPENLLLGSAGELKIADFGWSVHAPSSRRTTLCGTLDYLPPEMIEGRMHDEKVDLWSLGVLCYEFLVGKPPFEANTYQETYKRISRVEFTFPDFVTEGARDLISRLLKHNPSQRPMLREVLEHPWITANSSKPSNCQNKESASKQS

bone marrow = experiment: Animal studies, effects on bone marrow; assay type: in vivo; conditions: animals treated with large doses
[22] = human, in vivo; remark: listed apart in the source
Human T-cells = experiment: Proliferation assay of human T-cells (PHA-stimulated PBMCs, BrdU); assay type: cell-based; conditions: T-cell, PHA 20 μg/ml, 48 hours, BrdU ELISA
Description: Human peripheral blood mononuclear cells (PBMCs) were obtained from healthy volunteers and transferred to RPMI1640 cell culture medium containing 10% dialyzed fetal calf serum. 80.000 cells per well were pipetted into a 96-well plate and phytohemagglutinin (PHA) was added in phosphate buffered saline to a final concentration of 20 μg/ml to stimulate T-cell proliferation. Vidofludimus was added in dimethyl sulfoxide (DMSO, final concentration: 0.1 vol %) to final concentrations ranging from 20 nM to 50 μM. After incubation for 48 hours, cell proliferation was quantified using the “cell proliferation ELISA BrdU” (Roche) according to the manufacturer's instructions. Half maximal inhibition (IC50) was calculated using a 4-parameter sigmoidal curve fit.

Sequence of mDHODH (O35435 whole entry): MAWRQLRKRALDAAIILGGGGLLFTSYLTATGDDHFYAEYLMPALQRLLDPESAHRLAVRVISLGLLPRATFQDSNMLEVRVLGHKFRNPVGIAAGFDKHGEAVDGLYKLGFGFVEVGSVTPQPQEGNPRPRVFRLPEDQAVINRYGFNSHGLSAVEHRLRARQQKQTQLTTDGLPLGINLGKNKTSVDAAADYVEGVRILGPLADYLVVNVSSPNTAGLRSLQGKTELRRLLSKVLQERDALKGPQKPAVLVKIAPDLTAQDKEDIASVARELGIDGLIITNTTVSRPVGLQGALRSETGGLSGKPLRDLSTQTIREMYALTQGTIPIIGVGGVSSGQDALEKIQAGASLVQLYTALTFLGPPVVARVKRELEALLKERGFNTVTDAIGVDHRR
Sequence of EGFR (P00533 25-1210, species assumed): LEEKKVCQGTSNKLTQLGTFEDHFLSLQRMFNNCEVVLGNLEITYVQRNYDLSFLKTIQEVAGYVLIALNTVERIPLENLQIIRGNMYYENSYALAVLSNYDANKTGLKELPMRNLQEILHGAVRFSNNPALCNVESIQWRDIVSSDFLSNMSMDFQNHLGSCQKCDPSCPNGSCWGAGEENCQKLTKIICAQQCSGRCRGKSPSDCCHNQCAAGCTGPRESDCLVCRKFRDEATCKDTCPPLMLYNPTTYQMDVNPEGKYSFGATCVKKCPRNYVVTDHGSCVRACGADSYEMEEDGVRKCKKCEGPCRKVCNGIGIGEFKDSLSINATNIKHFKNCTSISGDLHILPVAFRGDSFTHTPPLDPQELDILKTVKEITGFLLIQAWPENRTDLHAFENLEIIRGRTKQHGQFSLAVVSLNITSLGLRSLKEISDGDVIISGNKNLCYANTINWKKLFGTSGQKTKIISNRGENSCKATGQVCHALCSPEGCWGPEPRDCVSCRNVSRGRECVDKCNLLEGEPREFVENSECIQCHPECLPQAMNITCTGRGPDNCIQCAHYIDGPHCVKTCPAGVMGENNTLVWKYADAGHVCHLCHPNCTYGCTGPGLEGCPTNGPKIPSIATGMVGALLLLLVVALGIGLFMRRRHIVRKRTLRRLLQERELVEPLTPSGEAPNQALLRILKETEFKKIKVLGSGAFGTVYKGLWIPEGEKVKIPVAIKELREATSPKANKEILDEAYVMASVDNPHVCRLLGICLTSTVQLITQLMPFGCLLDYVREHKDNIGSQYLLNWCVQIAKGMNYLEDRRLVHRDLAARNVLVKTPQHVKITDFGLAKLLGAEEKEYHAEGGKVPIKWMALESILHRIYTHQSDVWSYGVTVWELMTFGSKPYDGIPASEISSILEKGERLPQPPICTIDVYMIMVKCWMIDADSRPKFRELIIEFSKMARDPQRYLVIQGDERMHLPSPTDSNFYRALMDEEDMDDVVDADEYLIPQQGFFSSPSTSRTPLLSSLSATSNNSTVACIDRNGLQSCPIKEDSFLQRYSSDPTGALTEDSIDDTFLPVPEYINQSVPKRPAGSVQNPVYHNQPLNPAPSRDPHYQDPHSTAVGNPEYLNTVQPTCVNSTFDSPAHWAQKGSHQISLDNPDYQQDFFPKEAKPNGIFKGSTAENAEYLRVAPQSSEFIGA

COc1cccc(-c2ccc(NC(=O)C3=C(C(=O)O)CCC3)c(F)c2)c1 [IMU-838, 1-cyclopentene-1-carboxylic acid, 2-(((3-fluoro-3′-methoxy(1,1′-biphenyl)-4-yl)amino)carbonyl)-, calcium salt (2:1)]
EC90 (SARS-CoV-2 USA_WA1/2020): 6.2 ± 1.9 µM | CC90 at 3 days [1]: > 100 µM | drug concentrations with no cytotoxicity observed (Vero 76): up to 100 μM | EC50 ([2]; Huh7 cells, Luc activity readout, read-out: median ED50 HCV replicon): 4.6 µM | IC50 ([2]; Replicon, luciferase): 4.6 µM | reduction of viral plaques (SARS-CoV-2 [3]): 58 fold | T-cell mediated cytokine production [4]: able to block | IC50 [5]: > 50 µM | COVID-19 related adverse events with increased intensity ([6]; IMU-838 treated patients): 7.1% | reduction of C-reactive protein (CRP) vs placebo ([6]; blood): more effective reduction | proportion of patients reaching clinical recovery ([6]; day 7, FAS, 2×22.5 mg + standard-of-care): 18.5% | proportion of patients reaching clinical improvement (as assessed by the investigators) ([6]; day 14, FAS): 42.7% | anti-viral effect by viral titers ([6]; day 14 and day 28): anti-viral effect of IMU-838 on SARS-CoV-2 was observed | proportion of patients reaching clinical improvement (as assessed by the investigators) ([6]; day 28, FAS): 90.9% | proportion of patients reaching clinical recovery ([6]; day 28, FAS): 71.3% | patients reaching WHO score improvement by two points ([6]; elderly patients (65 years or older), day 14, mFAS): 36.4% | acceleration of 75% probability to reach clinical improvement (centrally calculated) vs placebo ([6]; human, in vivo): 2.9 days | acceleration of 75% probability to reach clinical improvement (investigator assessment) vs placebo ([6]; human, in vivo): 3.8 days and 4.8 days | reduction of D-dimer vs placebo ([6]; human, in vivo): more effective reduction | shortening of third patient quartile for duration of hospitalization vs placebo ([6]; human, in vivo): 3.4 days | time to clinical improvement vs placebo ([6]; mFAS): shorter | clinical improvement (centrally calculated) when used early ([6]; within the first 8 days after onset of symptoms, mFAS): observed to be better | EC50 (SARS-CoV-2 MUC-IMB-1 [7]): 7.5 to 15 µM | EC90 (SARS-CoV-2 MUC-IMB-1 [7]): 15 to 30 µM | CC50 (in vitro [8]): > 60 µM | CC90 (in vitro [8]): > 60 µM | IC50 (Lassa fever Arena virus): 2.8 µM | Virus titer (SARS-CoV-2 [9]; IMU-838 1 μM alone): 5.7 CCID50/ml | Virus titer (SARS-CoV-2 [9]; IMU-838 5 μM alone): 5.7 CCID50/ml | Virus titer (SARS-CoV-2 [9]; IMU-838 10 μM alone): 4.5 CCID50/ml | reduction of virus titer (SARS-CoV-2 [9]; all other concentrations (5, 1 μM), alone): did not reduce virus titer | hematological effects of COVID19 [10]: did not intensify | rate of infections and infestations and rate of liver events vs placebo [10]: did not increase | rate of serious adverse events and adverse events leading to treatment discontinuation vs placebo [10]: not increased | tolerated repeated daily dosing [11]: up to 50 mg | IC50 ([12]; RT (reverse transcriptase)): 2.2 µM | EC50 ([12]; human PBMCs, reverse transcriptase activity and p24, read-out: median effective dose (ED50) HIV): ~2 µM | IC50 ([12]; p24): 2 µM | CC50 (in vitro [13]): > 100 µM | plasma levels achieved in the blood of treated patients [14]: 10 to 30 µM | IC50 (mDHODH): 10 µM | IC50 [15]: > 30 µM | CC50 at 5 days [16]: 7.9 µM | CC50 (in vitro [17]): 88 µM | EC50 (SARS-CoV-2 MUC-IMB-1 [18]): 10 µM | EC50 (SARS-CoV-2 [19]): 6.1 µM | EC50 (SARS-CoV-2 MUC-IMB-1 [20]): 6.8 µM

Cc1oncc1C(=O)Nc1ccc(C(F)(F)F)cc1 [leflunomide]
blood plasma half-life [21]: 384 to 456 h | dosing time to achieve therapeutic trough levels [21]: up to 2 months

COc1cccc(-c2ccc(NC(=O)C3=C(C(=O)O)CCC3)c(F)c2)c1 [Vidofludimus, 2-((3-fluoro-3′-methoxy-[1,1′-biphenyl]-4-yl)carbamoyl)cyclopent-1-enecarboxylic acid]
off-target activity on EGFR (EGFR): does not hit | off-target activity on Aurora-A kinases (Auroroa-A kinases): does not hit | effects on bone marrow (bone marrow): lack detrimental effects on bone marrow | blood plasma half-life [22]: 30 h | IC50 (Human T-cells): 4.1 µM

CCC(CC)COC(=O)[C@H](C)N[P@](=O)(OC[C@H]1O[C@@](C#N)(c2ccc3c(N)ncnn23)[C@H](O)[C@@H]1O)Oc1ccccc1 [Remdesivir, remdesivir, reference compound]
Virus titer (SARS-CoV-2 [9]; remdesivir 1 μM alone): 5.0 CCID50/ml | Virus titer (SARS-CoV-2 [9]; remdesivir 5 μM alone): 1.7 CCID50/ml | Virus titer (SARS-CoV-2 [9]; remdesivir 10 μM alone): <0.67 CCID50/ml
